The compounds below were run against T1, KRAS G12D::SOS1 binding (Homo sapiens, UniProt Q07889) (assay: KRAS G12D::SOS1 binding inhibition (KRAS-G12D/SOS1 binding assay kit, Cisbio)). Settings: GTP 10 µM.
T1 construct: purchased Cisbio 63ADK000CB21PEH
T1 sequence (Q07889 1-1333): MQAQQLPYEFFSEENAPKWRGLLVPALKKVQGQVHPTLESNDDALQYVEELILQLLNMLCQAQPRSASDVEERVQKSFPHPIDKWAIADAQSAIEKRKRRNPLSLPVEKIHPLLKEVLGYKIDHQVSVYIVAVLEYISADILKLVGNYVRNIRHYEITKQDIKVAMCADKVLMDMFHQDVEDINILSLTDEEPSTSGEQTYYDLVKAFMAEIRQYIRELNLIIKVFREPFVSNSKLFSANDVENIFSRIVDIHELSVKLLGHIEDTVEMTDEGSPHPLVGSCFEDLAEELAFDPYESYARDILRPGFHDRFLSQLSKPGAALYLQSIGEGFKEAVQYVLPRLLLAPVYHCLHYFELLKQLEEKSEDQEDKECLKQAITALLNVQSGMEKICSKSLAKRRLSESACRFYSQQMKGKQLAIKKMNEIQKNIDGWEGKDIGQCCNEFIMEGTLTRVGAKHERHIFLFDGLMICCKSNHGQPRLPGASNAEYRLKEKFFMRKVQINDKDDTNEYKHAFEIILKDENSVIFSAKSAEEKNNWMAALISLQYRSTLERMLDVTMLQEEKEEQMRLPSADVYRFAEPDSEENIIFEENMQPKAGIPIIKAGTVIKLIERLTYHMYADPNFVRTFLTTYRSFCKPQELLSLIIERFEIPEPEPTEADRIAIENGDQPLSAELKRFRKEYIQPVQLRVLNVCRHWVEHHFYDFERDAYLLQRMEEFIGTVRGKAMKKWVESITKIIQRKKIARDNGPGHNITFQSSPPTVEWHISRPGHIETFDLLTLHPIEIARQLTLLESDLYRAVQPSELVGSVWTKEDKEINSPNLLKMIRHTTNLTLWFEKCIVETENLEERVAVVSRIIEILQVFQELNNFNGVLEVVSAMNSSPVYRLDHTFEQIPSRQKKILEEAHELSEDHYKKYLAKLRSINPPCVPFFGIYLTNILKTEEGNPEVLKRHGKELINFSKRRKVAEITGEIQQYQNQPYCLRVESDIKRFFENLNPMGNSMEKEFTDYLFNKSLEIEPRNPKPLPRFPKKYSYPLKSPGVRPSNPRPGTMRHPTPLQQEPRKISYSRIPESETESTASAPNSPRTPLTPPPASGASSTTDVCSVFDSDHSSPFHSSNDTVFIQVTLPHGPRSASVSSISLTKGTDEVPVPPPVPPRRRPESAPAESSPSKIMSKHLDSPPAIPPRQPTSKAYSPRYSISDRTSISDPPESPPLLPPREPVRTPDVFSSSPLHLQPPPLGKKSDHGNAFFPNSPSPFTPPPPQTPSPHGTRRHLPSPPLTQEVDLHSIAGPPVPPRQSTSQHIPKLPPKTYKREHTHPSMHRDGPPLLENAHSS
Procedure: The inhibitory effect of the compounds of the present invention on KRAS G12D:: SOS 1 binding was assessed using KRAS-G12D/SOS1 BINDING ASSAY KITS (Cisbio, Cat. No. 63ADK000CB21PEH).
The test compound (10 mM stock solution) was diluted […] to 0.1 mM with 100% DMSO and diluted at a ratio of 1:3 in a 384-well dilution plate for 11 concentrations. 0.1 µL of the gradiently-diluted compound solution was transferred to a 384-well plate using Echo. 2 replicate wells were set for each compound. The solution was centrifuged at 1000 rpm/min for 1 min. 5 µL of 4X KRAS G12D (final concentration 1X) and a GTP solution (final concentration 10 µM, sigma, Cat. No. V900868) were transferred to the 384-well reaction plate. The mixture was centrifuged at 1000 rpm/min for 1 min and incubated at 25 °C for 15 min. 5 µL of a 4X SOS1 solution (final concentration 1X) was transferred to the 384-well reaction plate. The solution was centrifuged at 1000 rpm/min for 1 min and incubated at 25 °C for 45 min. The final concentrations of BAY-293 compound were 10, 3.33, 1.11, 0.37, 0.12, 0.04, 0.014, 0.0046, 0.0015, 0.0005, 0.00017, and 0 µM. The final concentrations of the test compound were 10, 3.33, 1.11, 0.37, 0.12, 0.04, 0.014, 0.0046, 0.0015, 0.0005, 0.00017, and 0 µM. The final concentrations of DMSO were all 0.5%. 10 µL of a 2X assay reagent solution was transferred to the 384-well reaction plate. The solution was centrifuged at 1000 rpm/min for 1 min and incubated at 4 °C for 180 min. An Envision multifunctional microplate reader was used to read at an excitation wavelength of […] and an emission wavelength of 615 nm. The signal intensity of 665/615 ratio was used to characterize the degree of enzyme activity. Data processing: compound IC50 was fitted by Graphpad Prism 8 nonlinear regression equation: Negative control: DMSO
IC50 (half maximal inhibitory concentration) of the compound was obtained using the following nonlinear fitting formula: Y = Bottom + (Top−Bottom)/(1+10^(∧)((LogIC50−X)*HillSlope)) [formula] • X: log value of the concentration of the test compound • Y: inhibition percentage
Bottom is the minimum inhibition percentage, Top is the maximum inhibition percentage, and HillSlope is the Hill slope.

`COc1c(=O)n(N2CCOCC2)cc2c(N[C@H](C)c3cccc(C(F)F)c3F)nc(C)nc12` [Example 20, (R)-4-((1-(3-(difluoromethyl)-2-fluorophenyl)ethyl)amino)-8-methoxy-2-methyl-6-morpholinepyrido[4,3-d]pyrimidine-7(6H)-one] and `Cc1nc(N[C@H](C)c2cccc(C(F)F)c2F)c2cn(C3(CF)CC3)c(=O)c(N3CCOCC3)c2n1` [Example 34, (R)-4-((1-(3-(difluoromethyl)-2-fluorophenyl)ethyl)amino)-6-(1-(fluoromethyl)cyclopropyl)-2-methyl-8-morpholinylpyrido[4,3-d]pyrimidine-7(6H)-one] are within 1.5-fold of each other in IC50: 7.46 nM for the first, 6.55 nM for the second.

`[2H]C([2H])([2H])Oc1c(=O)n(C2(CF)CC2)cc2c(N[C@H](C)c3cccc(C(F)F)c3F)nc(C)nc12` [Example 23, (R)-4-((1-(3-(difluoromethyl)-2-fluorophenyl)ethyl)amino)-6-(1-(fluoromethyl)cyclopropyl)-8-(methoxy-d3)-2-methylpyrido[4,3-d]pyrimidine-7(6H)-one] and `Cc1nc(N[C@H](C)c2cccc(C(F)F)c2F)c2cn(C3(CF)CC3)c(=O)c(N3CCOC[C@@H]3C)c2n1` [Example 40, 4-(((R)-1-(3-(difluoromethyl)-2-fluorophenyl)ethyl)amino)-6-(1-(fluoromethyl)cyclopropyl)-2-methyl-8-((S)-3-methylmorpholine)pyrido[4,3-d]pyrimidine-7(6H)-one] are within 1.5-fold of each other in IC50: 4.17 nM for the first, 3.84 nM for the second.

`[2H][C@](C)(Nc1nc(C)nc2c(N3CCOCC3)c(=O)n(C3(CF)CC3)cc12)c1cccc(C(F)F)c1F` [Example 55, (R)-4-((1-(3-(difluoromethyl)-2-fluorophenyl)ethyl-1-d)amino)-6-(1-(fluoromethyl)cyclopropyl)-2-methyl-8-morpholinylpyrido[4,3-d]pyrimidine-7(6H)-one] showed an IC50 of 6.3 nM.
